Earlier results in patent publication US10471156B2, “Pharmaceutical composition comprising amorphous lenalidomide” (SYNTHON B.V., priority 2014, dated 2019).

aqueous solubility (water)	solubility in water	Molecule
exceeding 600 mg/ml	–	2-hydroxypropyl-β-cyclodextrin
–	slightly soluble	Nc1cccc2c1CN(C1CCC(=O)NC1=O)C2=O (racemic) [Lenalidomide, (RS)-3-(4-Amino-1-oxo 1,3-dihydro-2H-isoindol-2-yl)piperidine-2,6-dione]
